Patent publication US8952024B2, “Herbicidal pyrimidone derivatives” (E I du Pont de Nemours and Company, priority 2009, dated 2015)

How the values were obtained:
Format in all cases: in vivo
[1] = tested on: giant foxtail (Setaria faberii); test: Test B pre-/postemergence plant response; details: for Foxtail, Giant plant response rating (0 to 100 scale): 62 g ai/ha, 0 is no effect, 13 to 15 days
Method in brief: (§1)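 Compound in solvent + surfactant applied pre-em (loam/sand) or post-em (plants 2–18 cm, peat medium); greenhouse hold 13–15 days; visual 0–100 control score.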

[2] = tested on: bermudagrass (Cynodon dactylon); test: Test B pre-/postemergence plant response; details: for Bermudagrass plant response rating (0 to 100 scale): 62 g ai/ha, 0 is no effect, 13 to 15 days
Method in brief: as §1

soybean (Glycine max) = test: Test B pre-/postemergence plant response; details: for Soybean plant response rating (0 to 100 scale): 62 g ai/ha, postemergence, 0 is no effect, 100 is complete control, 13 to 15 days; for Plant response rating, Soybean: Postemergence
Method in brief: as §1

[3] = tested on: johnsongrass (Sorghum halepense); test: Test B pre-/postemergence plant response; details: for Johnsongrass plant response rating (0 to 100 scale): 62 g ai/ha, 0 is no effect, 13 to 15 days
Method in brief: as §1

[4] = tested on: ragweed (common ragweed, Ambrosia elatior); test: Test B pre-/postemergence plant response; details: for Ragweed plant response rating (0 to 100 scale): 62 g ai/ha, postemergence, 0 is no effect, 100 is complete control, 13 to 15 days; for Plant response rating, Ragweed: Postemergence
Method in brief: as §1

[5] = tested on: morningglory (Ipomoea coccinea); test: Test B pre-/postemergence plant response; details: for Morningglory plant response rating (0 to 100 scale): 62 g ai/ha, 0 is no effect, 13 to 15 days
Method in brief: as §1

[6] = tested on: cocklebur (Xanthium strumarium); test: Test B pre-/postemergence plant response; details: for Cocklebur plant response rating (0 to 100 scale): 62 g ai/ha, 0 is no effect, 13 to 15 days
Method in brief: as §1

[7] = tested on: downy bromegrass (Bromus tectorum); test: Test B pre-/postemergence plant response; details: for Bromegrass, Downy plant response rating (0 to 100 scale): 62 g ai/ha, 0 is no effect, 13 to 15 days
Method in brief: as §1

kochia (Kochia scoparia) = test: Test B pre-/postemergence plant response; details: for Kochia plant response rating (0 to 100 scale): 62 g ai/ha, 0 is no effect, 13 to 15 days
Method in brief: as §1

[8] = tested on: blackgrass (Alopecurus myosuroides); test: Test B pre-/postemergence plant response; details: for Blackgrass plant response rating (0 to 100 scale): 62 g ai/ha, 0 is no effect, 13 to 15 days
Method in brief: as §1

[9] = tested on: wheat (Triticum aestivum); test: Test B pre-/postemergence plant response; details: for Wheat plant response rating (0 to 100 scale): 62 g ai/ha, postemergence, 0 is no effect, 100 is complete control, 13 to 15 days; for Plant response rating, Wheat: Postemergence
Method in brief: as §1

wild oat (Avena fatua) = test: Test B pre-/postemergence plant response; details: for Oat, Wild plant response rating (0 to 100 scale): 62 g ai/ha, 0 is no effect, 13 to 15 days
Method in brief: as §1

[10] = tested on: yellow nutsedge (Cyperus esculentus); test: Test B pre-/postemergence plant response; details: for Nutsedge, Yellow plant response rating (0 to 100 scale): 62 g ai/ha, 0 is no effect, 13 to 15 days
Method in brief: as §1

[11] = tested on: green foxtail (Setaria viridis); test: Test B pre-/postemergence plant response; details: for Foxtail, Green plant response rating (0 to 100 scale): 62 g ai/ha, 0 is no effect, 13 to 15 days
Method in brief: as §1

[12] = tested on: velvetleaf (Abutilon theophrasti); test: Test B pre-/postemergence plant response; details: for Velvetleaf plant response rating (0 to 100 scale): 62 g ai/ha, postemergence, 0 is no effect, 100 is complete control, 13 to 15 days; for Plant response rating, Velvetleaf: Postemergence
Method in brief: as §1

[13] = tested on: windgrass (Apera spica-venti); test: Test B postemergence plant response; details: for Windgrass plant response rating (0 to 100 scale): 62 g ai/ha, postemergence, 0 is no effect, 100 is complete control, 13 to 15 days; for Plant response rating, Windgrass: Postemergence
Method in brief: (§2)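 Plants grown in peat/vermiculite medium were sprayed postemergence at 2–18 cm height (1- to 4-leaf stage). After 13–15 days in the greenhouse, response was rated visually against untreated controls on a 0–100 scale (0 no effect, 100 complete control).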

[14] = tested on: canarygrass (Phalaris minor); test: Test B postemergence plant response; details: for Canarygrass plant response rating (0 to 100 scale): 62 g ai/ha, 0 is no effect, 13 to 15 days
Method in brief: as §2

[15] = tested on: chickweed (Stellaria media); test: Test B postemergence plant response; details: for Chickweed plant response rating (0 to 100 scale): 62 g ai/ha, 0 is no effect, 13 to 15 days
Method in brief: as §2

[16] = postemergence, 100 is complete control
[17] = Postemergence, 31 g ai/ha, 0 to 100 scale (0 no effect, 100 complete control)
[18] = Postemergence, 125 g ai/ha, scale 0 to 100 (0 no effect, 100 complete control)
[19] = Postemergence, 250 g ai/ha, scale 0 to 100 (0 no effect, 100 complete control)
[20] = 31 g ai/ha, 0 to 100 scale (0 no effect, 100 complete control)
[21] = 125 g ai/ha, scale 0 to 100 (0 no effect, 100 complete control)
[22] = 250 g ai/ha, scale 0 to 100 (0 no effect, 100 complete control)
[23] = 31 g ai/ha, postemergence, scale 0 to 100, 0 is no effect, 100 is complete control

COCCCn1c(-c2cccc(F)c2)ncc(C(=O)C2=C(O)CCCC2=O)c1=O [Compound 126]
Foxtail, Giant plant response rating (0 to 100 scale) [1, 16]: 80
Plant response rating, Foxtail, Giant [1, 17]: 70
Plant response rating, Foxtail, Giant [1, 18]: 85
Plant response rating, Foxtail, Giant [1, 19]: 90
Bermudagrass plant response rating (0 to 100 scale) [2, 16]: 85
Plant response rating, Bermudagrass [2, 17]: 75
Plant response rating, Bermudagrass [2, 18]: 90
Plant response rating, Bermudagrass [2, 19]: 95
Soybean plant response rating (0 to 100 scale) (soybean (Glycine max)): 75
Plant response rating, Soybean (soybean (Glycine max); [20]): 70
Plant response rating, Soybean (soybean (Glycine max); [21]): 85
Plant response rating, Soybean (soybean (Glycine max); [22]): 98
Johnsongrass plant response rating (0 to 100 scale) [3, 16]: 65
Plant response rating, Johnsongrass [3, 17]: 65
Plant response rating, Johnsongrass [3, 18]: 85
Plant response rating, Johnsongrass [3, 19]: 90
Ragweed plant response rating (0 to 100 scale) [4]: 75
Plant response rating, Ragweed [4, 20]: 55
Plant response rating, Ragweed [4, 21]: 85
Plant response rating, Ragweed [4, 22]: 90
Morningglory plant response rating (0 to 100 scale) [5, 16]: 85
Plant response rating, Morningglory [5, 17]: 75
Plant response rating, Morningglory [5, 18]: 100
Plant response rating, Morningglory [5, 19]: 100
Cocklebur plant response rating (0 to 100 scale) [6, 16]: 65
Plant response rating, Cocklebur [6, 17]: 15
Plant response rating, Cocklebur [6, 18]: 80
Plant response rating, Cocklebur [6, 19]: 98
Bromegrass, Downy plant response rating (0 to 100 scale) [7, 16]: 15
Plant response rating, Bromegrass, Downy [7, 17]: 5
Plant response rating, Bromegrass, Downy [7, 18]: 30
Plant response rating, Bromegrass, Downy [7, 19]: 40
Kochia plant response rating (0 to 100 scale) (kochia (Kochia scoparia); [16]): 25
Plant response rating, Kochia (kochia (Kochia scoparia); [17]): 10
Plant response rating, Kochia (kochia (Kochia scoparia); [18]): 25
Plant response rating, Kochia (kochia (Kochia scoparia); [19]): 85
Blackgrass plant response rating (0 to 100 scale) [8, 16]: 25
Plant response rating, Blackgrass [8, 17]: 5
Plant response rating, Blackgrass [8, 18]: 30
Plant response rating, Blackgrass [8, 19]: 45
Wheat plant response rating (0 to 100 scale) [9]: 15
Plant response rating, Wheat [9, 20]: 5
Plant response rating, Wheat [9, 21]: 35
Oat, Wild plant response rating (0 to 100 scale) (wild oat (Avena fatua); [16]): 10
Plant response rating, Oat, Wild (wild oat (Avena fatua); [17]): 5
Plant response rating, Oat, Wild (wild oat (Avena fatua); [18]): 35
Plant response rating, Oat, Wild (wild oat (Avena fatua); [19]): 50
Nutsedge, Yellow plant response rating (0 to 100 scale) [10, 16]: 75
Plant response rating, Nutsedge, Yellow [10, 17]: 65
Plant response rating, Nutsedge, Yellow [10, 18]: 80
Plant response rating, Nutsedge, Yellow [10, 19]: 80
Foxtail, Green plant response rating (0 to 100 scale) [11, 16]: 80
Plant response rating, Foxtail, Green [11, 17]: 50
Plant response rating, Foxtail, Green [11, 18]: 90
Plant response rating, Foxtail, Green [11, 19]: 95
Velvetleaf plant response rating (0 to 100 scale) [12]: 90
Plant response rating, Velvetleaf [12, 20]: 80
Plant response rating, Velvetleaf [12, 21]: 95
Plant response rating, Velvetleaf [12, 22]: 98
Windgrass plant response rating (0 to 100 scale) [13]: 10
Plant response rating, Windgrass [13, 20]: 10
Plant response rating, Windgrass [13, 21]: 40
Canarygrass plant response rating (0 to 100 scale) [14, 16]: 40
Plant response rating, Canarygrass [14, 17]: 15
Plant response rating, Canarygrass [14, 18]: 60
Plant response rating, Canarygrass [14, 19]: 90
Chickweed plant response rating (0 to 100 scale) [15, 16]: 80
Plant response rating, Chickweed [15, 17]: 65
Plant response rating, Chickweed [15, 18]: 98
Plant response rating, Chickweed [15, 19]: 98

COCCn1c(-c2ccco2)ncc(C(=O)C2=C(O)CCCC2=O)c1=O [Compound 111]
Plant response rating, Foxtail, Giant [1, 23]: 60
Foxtail, Giant plant response rating (0 to 100 scale) [1, 16]: 65
Plant response rating, Foxtail, Giant [1, 18]: 65
Plant response rating, Foxtail, Giant [1, 19]: 70
Plant response rating, Bermudagrass [2, 23]: 95
Bermudagrass plant response rating (0 to 100 scale) [2, 16]: 100
Plant response rating, Bermudagrass [2, 18]: 100
Plant response rating, Bermudagrass [2, 19]: 100
Soybean plant response rating (0 to 100 scale) (soybean (Glycine max)): 80
Plant response rating, Soybean (soybean (Glycine max); [21]): 95
Plant response rating, Soybean (soybean (Glycine max); [22]): 98
Plant response rating, Johnsongrass [3, 23]: 10
Johnsongrass plant response rating (0 to 100 scale) [3, 16]: 15
Plant response rating, Johnsongrass [3, 18]: 20
Plant response rating, Johnsongrass [3, 19]: 40
Ragweed plant response rating (0 to 100 scale) [4]: 95
Plant response rating, Ragweed [4, 21]: 98
Plant response rating, Ragweed [4, 22]: 98
Plant response rating, Morningglory [5, 23]: 100
Morningglory plant response rating (0 to 100 scale) [5, 16]: 100
Plant response rating, Morningglory [5, 18]: 100
Plant response rating, Morningglory [5, 19]: 100
Plant response rating, Cocklebur [6, 23]: 98
Cocklebur plant response rating (0 to 100 scale) [6, 16]: 98
Plant response rating, Cocklebur [6, 18]: 100
Plant response rating, Cocklebur [6, 19]: 100
Plant response rating, Bromegrass, Downy [7, 23]: 0
Bromegrass, Downy plant response rating (0 to 100 scale) [7, 16]: 0
Plant response rating, Bromegrass, Downy [7, 18]: 5
Plant response rating, Bromegrass, Downy [7, 19]: 10
Plant response rating, Kochia (kochia (Kochia scoparia); [23]): 80
Kochia plant response rating (0 to 100 scale) (kochia (Kochia scoparia); [16]): 100
Plant response rating, Kochia (kochia (Kochia scoparia); [18]): 100
Plant response rating, Kochia (kochia (Kochia scoparia); [19]): 100
Plant response rating, Blackgrass [8, 23]: 5
Blackgrass plant response rating (0 to 100 scale) [8, 16]: 5
Plant response rating, Blackgrass [8, 18]: 25
Plant response rating, Blackgrass [8, 19]: 40
Wheat plant response rating (0 to 100 scale) [9]: 0
Plant response rating, Wheat [9, 21]: 5
Plant response rating, Oat, Wild (wild oat (Avena fatua); [23]): 0
Oat, Wild plant response rating (0 to 100 scale) (wild oat (Avena fatua); [16]): 0
Plant response rating, Oat, Wild (wild oat (Avena fatua); [18]): 0
Plant response rating, Oat, Wild (wild oat (Avena fatua); [19]): 10
Plant response rating, Nutsedge, Yellow [10, 23]: 65
Nutsedge, Yellow plant response rating (0 to 100 scale) [10, 16]: 75
Plant response rating, Nutsedge, Yellow [10, 18]: 80
Plant response rating, Nutsedge, Yellow [10, 19]: 85
Plant response rating, Foxtail, Green [11, 23]: 40
Foxtail, Green plant response rating (0 to 100 scale) [11, 16]: 60
Plant response rating, Foxtail, Green [11, 18]: 65
Plant response rating, Foxtail, Green [11, 19]: 70
Velvetleaf plant response rating (0 to 100 scale) [12]: 98
Plant response rating, Velvetleaf [12, 21]: 100
Plant response rating, Velvetleaf [12, 22]: 100
Windgrass plant response rating (0 to 100 scale) [13]: 30
Plant response rating, Windgrass [13, 21]: 35
Plant response rating, Canarygrass [14, 23]: 0
Canarygrass plant response rating (0 to 100 scale) [14, 16]: 0
Plant response rating, Canarygrass [14, 18]: 0
Plant response rating, Canarygrass [14, 19]: 15
Plant response rating, Chickweed [15, 23]: 95
Chickweed plant response rating (0 to 100 scale) [15, 16]: 100
Plant response rating, Chickweed [15, 18]: 100
Plant response rating, Chickweed [15, 19]: 100
